Data on two compounds can be found in patent publication US20050233984A1, “Composition for preventing or treating degenerative brain diseases comprising a hydrolysate of ginsenosides” (Digital Biotech Co., Ltd., priority 2002, published 2005).

Data set [1] concerns neuroblastoma B103 cell line. The data set is described as follows: MTT test: apoptosis induced by staurosporin. In kind it is cell-based. The following applies: B103 cells, staurosporin-only control = 100%. The protocol:
5×10^3 cells of neuroblastoma B103 cell line (donated by Dr. David Schubert of the Salk Institute, USA) were placed in each well of a 96-well plate with 100 μl of DMEM (Dulbecco's Minimal Eagle's Medium) containing 10% fetal bovine serum (FBS), and cultured at 37° C. under 8% CO2 for 1 day. After changing the medium to serum-free DMEM, the cells were treated with various concentrations of test compounds and, 1 hour later, with 25 μM of beta-amyloid (25-35 peptide; US peptide, CA, USA). The cells were cultured at 37° C. for 18 hours, treated with 15 μl of MTT solution [10 mg/ml solution of 3-(4,5-dimethyl-2-thiazolyl)-2,5-diphenyl-2H-tetrazolium bromide in phosphate buffered saline (PBS)], and allowed to react at 37° C. for 3 to 4 hours. 100 μl of lysis buffer (10% SDS, 50% dimethylformamide, pH 4.7) was added to the wells, and the cells were cultured overnight at room temperature and relative humidity of 90%. Optical density (OD) of each well was measured at […] and 630 nm, respectively, using a scanning multiwell spectrophotometer, and then the OD value at 630 nm was subtracted from that at 570 nm.
Further, in order to examine whether compounds originating from ginseng can block apoptosis, […], and the survival rates of the neural cells were determined.
(Tetrazolium assays rely on reduction of a dye to a coloured formazan, in cell work by metabolically active cells.)

Data set [2] is described as follows: Degree of BBB penetration: pharmacokinetics in blood and brain by LC-mass. Format: in vivo, Sprague-Dawley rat. The note with it: SD rat; for detection of the peak in the brain tissue sample: 15 minutes after administration of 1 mg/kg of Rg1 or Rb1, FIGS. 10a and 10b. The protocol:
A male Sprague-Dawley rat (weight 250-300 g) was lightly anesthetized with ether and catheterized with a polyethylene tube (PE-50) in the femoral artery and vein. After the rat recovered, a saline solution containing 1 mg/kg of Rg1 or Rb1 was administered into the femoral vein through the intravenous bolus administration. 300 μl blood samples were collected from the rat's femoral artery at 2, 5, 10, 15, 20, 30, 45 and 60 minutes after the administration. Each blood sample was centrifuged to obtain 100 μl of plasma. A plasma sample was prepared as in (2) of step 1 with the plasma. 20 μl of the sample was injected into the LC mass system as in Step 1, and ginsenosides Rg1 and Rb1 and their metabolites PPD and PPT were quantified. The plasma concentrations of ginsenosides and their metabolites were calculated in the forms of weight per plasma (ml) (in case of ginsenosides) or peak size (in case of metabolites).
Immediately after collecting the blood samples, the rats were decapitated and brain tissues were obtained therefrom. The tissues were rinsed with ice-cooled saline, placed in a 15 ml Falcon tube and then weighed precisely. Acetonitrile was added to the tube in an amount twice the weight of the tissue sample, and the sample was homogenized using a tissue homogenizer (Ultra-Turrax T25, JANKE&KUNKEL IKA-Labortechnik). The mixture was centrifuged at 3,000 rpm for 20 minutes. 300 μl of the resulting supernatant was dried in a speed-vac, and 300 μl of acetonitrile was added thereto. 20 μl of the resulting mixture was injected in the LC mass system as in Step 1 to quantify the concentrations of ginsenosides and their metabolites in the brain, and the measured concentrations were represented by weight per gram of the brain tissue or peak size.
Separation and detection conditions for ginsenosides Rg1 and Rb1 were as described in Step 1, and those for metabolites PPD and PPT were as follows:
The transfer rate of the substances into the brain (Kbrain) can be represented by the ratio of the mean concentration of the substance in the brain (Cmean,brain) to the mean plasma concentration (Cmean,plasma) as in Equation 1. [formula]
The mean concentration of a substance can be determined by dividing the area under the concentration-time curve corresponding to time 0 to t by t and, accordingly, the transfer rate of the substance into the brain (Kbrain) can be calculated by Equation 2 shown below. [formula]

Another data set deals with T1, beta-secretase (Rattus norvegicus, UniProt P56819).
T1 construct: the cells were lysed up with MEST buffer; endogenous in cells; host or cells: B103 neuroblastoma cell extract (Triton X-100 lysate)
T1 sequence (P56819 46-501): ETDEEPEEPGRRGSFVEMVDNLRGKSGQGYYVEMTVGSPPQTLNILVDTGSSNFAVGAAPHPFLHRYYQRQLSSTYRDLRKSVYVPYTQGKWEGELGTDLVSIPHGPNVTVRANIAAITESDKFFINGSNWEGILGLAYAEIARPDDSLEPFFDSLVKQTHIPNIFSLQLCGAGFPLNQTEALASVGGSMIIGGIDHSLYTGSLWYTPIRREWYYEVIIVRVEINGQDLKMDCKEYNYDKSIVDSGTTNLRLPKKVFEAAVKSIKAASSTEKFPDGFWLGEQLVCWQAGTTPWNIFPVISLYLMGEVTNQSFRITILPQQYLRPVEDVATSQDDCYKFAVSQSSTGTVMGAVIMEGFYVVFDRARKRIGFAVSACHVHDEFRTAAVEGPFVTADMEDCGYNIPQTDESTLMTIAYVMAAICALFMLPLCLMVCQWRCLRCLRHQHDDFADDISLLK
Description: β-secretase inhibitory activity, fluorometric, B103 cell extract. Format: biochemical. How it is done: Peptide H4848 (Bachem), a known suppressor of beta-secretase, was used for a comparative agent and PPT was used as a test compound.
1.5×10^6 cells of neuroblastoma B103 cell line secreting APP were plated on a 100 mm dish with DMEM medium containing 10% FBS, and cultured overnight. Then, the cells were lysed up with MEST buffer (20 mM MES, 0.15 M NaCl, 0.5% Triton X-100, pH 6.0 (Bachem)) to obtain a cell extract.
[…] sodium acetate buffer (pH 4.5), distilled water, beta-secretase inhibitor, 5 μM M2465 (Bachem) as a substrate for beta-secretase and MEST buffer were mixed in order, in amounts as shown in Table 5.
The resulting mixtures were reacted at […] for 2 hours, and then read by a fluorometer with 360 nm excitation and 508 nm emission wavelengths. Enzyme inhibitory activity was determined based on the enzyme activity of the control.

Where [3] appears, read: test compound 1 μM + 0.1 μM staurosporin.
Setting [4] is: test compound 1 μM alone, without staurosporin.

Molecules are shown by their SMILES.

In the case of `CC(C)=CCCC(C)(O)[C@H]1CC[C@]2(C)[C@@H]1[C@H](O)C[C@@H]1[C@@]3(C)CC[C@H](O)C(C)(C)[C@@H]3CC[C@]12C` (stereo in doubt) [PPD, protopanaxadiol], the results for the “Survival rate (%)” value in data set [1] (setting [3]) and in data set [1] (setting [4]) were 89.2 ± 1.0% and 176.5 ± 3.5%, respectively. The “detection of the peak in the brain tissue sample” value in data set [2] is recorded as “well detected”.
For `CC(C)=CCC[C@](C)(O)[C@H]1CC[C@]2(C)[C@@H]1[C@H](O)C[C@@H]1[C@@]3(C)CC[C@H](O)C(C)(C)[C@@H]3[C@@H](O)C[C@]12C` [PPT, protopanaxatriol], the “Survival rate (%)” value in data set [1] (setting [3]) is reported as 107.8 ± 2.3%; in data set [1] (setting [4]) it was 169.7 ± 1.6%; in data set [1] (test compound 10 μM + 0.1 μM staurosporin) it was 104.6 ± 2.7%; in data set [1] (test compound 10 μM alone, without staurosporin), 173.1 ± 1.2%. For the same compound, the “Enzyme Inhibition (% of control)” value is given as 0 % of control on beta-secretase (100 nM PPT), 0.6 % of control at beta-secretase (1 μM PPT), 3.31 % of control at beta-secretase (10 μM PPT) and 18.1 % of control at beta-secretase (100 μM PPT). Further, the “beta-secretase inhibitory activity versus comparative group (in words)” value at beta-secretase (comparative group: H4848 100 nM) is given as “as good as the comparative group”. In addition, the “detection of the peak in the brain tissue sample” value in data set [2] is “well detected”. Also, the “transfer rate into the brain (Kbrain)” value in data set [2] (calculated with Equations 1 and 2 (mean brain / mean plasma concentration)) is listed as 130±46.4%. The “concentration in the plasma versus the brain tissue (in words)” value in data set [2] (metabolite after 1 mg/kg intravenous ginsenoside, FIG. 12) is listed as “almost identical”.
